As usually defined, the IC50 is the concentration that inhibits the measured activity by half.

Molecules are shown by their SMILES. Like-named read-outs stand apart in the source and are kept apart here. Where only a bound is given, the exact number is not on record here.

IC50 data for four compounds are collected here from patent US20220332700A1, “NOVEL APOPTOSIS SIGNAL-REGULATING KINASE 1 INHIBITORS” (MANKIND PHARMA LTD, priority 2019, published 2022).

The target in this experiment is T1, Human ASK1 (Homo sapiens, UniProt Q99683).
T1 construct: expressed in transfected cells; host or cells: HEK293T-AP1
T1 sequence (Q99683 1-1374): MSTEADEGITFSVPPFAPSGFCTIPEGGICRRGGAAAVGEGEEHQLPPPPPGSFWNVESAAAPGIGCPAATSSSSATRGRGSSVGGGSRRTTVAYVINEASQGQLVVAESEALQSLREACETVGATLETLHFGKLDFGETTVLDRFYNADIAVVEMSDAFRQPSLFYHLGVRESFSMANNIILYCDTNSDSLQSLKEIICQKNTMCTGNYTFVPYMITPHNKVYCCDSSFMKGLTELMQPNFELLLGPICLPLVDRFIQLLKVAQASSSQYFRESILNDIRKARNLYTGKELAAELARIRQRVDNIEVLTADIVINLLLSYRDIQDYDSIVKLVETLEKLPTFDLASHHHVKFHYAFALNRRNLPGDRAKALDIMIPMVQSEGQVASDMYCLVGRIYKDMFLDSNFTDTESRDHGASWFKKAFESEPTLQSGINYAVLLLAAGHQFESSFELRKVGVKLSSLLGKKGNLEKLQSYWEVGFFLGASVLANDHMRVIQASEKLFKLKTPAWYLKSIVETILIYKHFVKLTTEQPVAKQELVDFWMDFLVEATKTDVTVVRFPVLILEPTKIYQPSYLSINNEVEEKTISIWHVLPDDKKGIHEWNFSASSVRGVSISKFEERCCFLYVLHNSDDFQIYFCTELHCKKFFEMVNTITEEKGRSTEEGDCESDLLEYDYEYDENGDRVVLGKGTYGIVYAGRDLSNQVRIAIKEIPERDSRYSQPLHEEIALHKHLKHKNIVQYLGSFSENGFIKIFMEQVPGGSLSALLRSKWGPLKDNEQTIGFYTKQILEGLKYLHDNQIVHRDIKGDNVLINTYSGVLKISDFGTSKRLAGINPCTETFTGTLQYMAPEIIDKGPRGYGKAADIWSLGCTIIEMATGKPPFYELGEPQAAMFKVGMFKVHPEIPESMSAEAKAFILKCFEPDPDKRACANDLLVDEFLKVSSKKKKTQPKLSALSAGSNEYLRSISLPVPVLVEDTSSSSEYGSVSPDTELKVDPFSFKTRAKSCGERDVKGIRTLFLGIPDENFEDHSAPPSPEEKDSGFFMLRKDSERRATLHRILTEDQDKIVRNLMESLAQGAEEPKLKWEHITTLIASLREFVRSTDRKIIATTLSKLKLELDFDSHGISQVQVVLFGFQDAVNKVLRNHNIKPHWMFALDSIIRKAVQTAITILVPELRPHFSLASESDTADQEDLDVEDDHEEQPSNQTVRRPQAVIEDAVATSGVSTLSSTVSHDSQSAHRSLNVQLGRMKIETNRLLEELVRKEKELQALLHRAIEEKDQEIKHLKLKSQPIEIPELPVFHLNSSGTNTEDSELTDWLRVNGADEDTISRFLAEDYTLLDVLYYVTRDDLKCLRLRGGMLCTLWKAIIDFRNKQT
The experiment in a line: ASK1 Cell Based Assay (phospho p38 read out in hASK1 transfected HEK293T-AP1 cells). The essentials:
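HEK293T-AP1 cells transfected with hASK1, after 24 h treated with compounds for 24 h (0.2% DMSO), then stimulated with 1 mM H2O2 for 1 h with compounds present.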

The mark [1] stands for this setting: HEK293T-AP1 cells, 1 mM hydrogen peroxide, phospho p38, read-out: Cell Based Assay IC50.
The mark [2] stands for this setting: comparison with Selonsertib, read-out: ASK1 ph. P38 Cell based Assay (IC50).

`CC(C)n1cnnc1-c1cccc(N2CCN(c3ccc(N4CCOCC4)cc3)C2=O)n1` [Example 1043, 1-(6-(4-isopropyl-4H-1,2,4-triazol-3-yl)pyridin-2-yl)-3-(4-morpholinophenyl)imidazolidin-2-one]: the IC50 reads like this: under setting [1], 140 nM; under setting [2], 140 nM.

As to `CC(C)n1cnnc1-c1cccc(N2CCN(c3ccc(N4CC(C#N)C4)cc3)C2=O)n1` [Example 1071, 1-(4-(3-(6-(4-isopropyl-4H-1,2,4-triazol-3-yl)pyridin-2-yl)-2-oxoimidazolidin-1-yl)phenyl)azetidine-3-carbonitrile], the IC50 was less than 100 nM under setting [1] and 69 nM under setting [2].

Consider `CNC(=O)C1CCN(c2ccc(N3CCN(c4cccc(-c5nncn5C(C)C)n4)C3=O)cc2)CC1` [Example 1082, 1-(4-(3-(6-(4-isopropyl-4H-1,2,4-triazol-3-yl)pyridin-2-yl)-2-oxoimidazolidin-1-yl)phenyl)-N-methylpiperidine-4-carboxamide], for which the IC50 is less than 100 nM under setting [1] and 15 nM under setting [2].

As to `CC(C)n1cnnc1-c1cccc(N2CCN(c3ccc(N4CCC(C(=O)N(C)C)CC4)cc3)C2=O)n1` [Example 1097, 1-(4-(3-(6-(4-isopropyl-4H-1,2,4-triazol-3-yl)pyridin-2-yl)-2-oxoimidazolidin-1-yl)phenyl)-N,N-dimethylpiperidine-4-carboxamide], the IC50 is less than 100 nM under setting [1] and 102 nM under setting [2].
